What is called viability is a read-out of living cells in per cent, often relative to untreated cells.

Entries after “also recorded” stand apart in the source; their conditions may differ. Where two headings read alike, the source gives them in different places.

The values that follow come from article PMC6832239, “The Effects of a Novel Series of KTTKS Analogues on Cytotoxicity and Proteolytic Activity” (Molecules, 2019).

For data set [1], the target named is T1, plasmin (Homo sapiens, UniProt P00747).
T1 construct: purchased Chromogenix (Milano, Italy)
In words: Amidolytic activity of plasmin (chromogenic substrate H-D-Val-Leu-Lys-pNA). The class given is biochemical. The procedure:
(§1) The determination of amidolytic activity was performed as previously described by Okada. A detailed description of the method is given below: 0.2 mL of the examined peptides (0.15 M NaCl as contro), a buffer, and 0.1 mL of enzyme solution were mixed. The final peptide concentrations were: 0.2 mM, 2 mM, and 20 mM. The mixture was incubated at 37 °C for 3 min; then the synthetic substrate solution was added in the same buffer. After 20 min of incubation, the reaction was stopped by adding 0.1 mL of 50% acetic acid and the absorbance of the released p-nitroaniline was measured at 405 nm. The mean values from three independent experiments done in duplicate are presented. A method error of 5% was adopted as statistical error. IC50 value was considered as the concentration of inhibitor that reduces absorbance by 50%, compared with absorbance measured under the same conditions without an inhibitor. IC50 was calculated mathematically by extrapolation using a linear plot. IC50 values are presented in Table 1 and Table 2, and graphically in Figure 1.
(§2) The buffers and the enzyme solutions included: • Tris buffer—0.6 mL (pH 8.8), enzyme: urokinase (50 units/mL), synthetic substrate: pyro-Glu-Gly-Arg-pNA·HCl (0.1 mL, 3 mM); • Tris buffer—0.5 mL (pH 8.4), enzyme: thrombin (1 units/mL), synthetic substrate: H-D-Phe-Pip-Arg-pNA (0.2 mL, 0.75 mM); • Tris buffer—0.5 mL (pH 7.4), enzyme: plasmin (0.4 units/mL), synthetic substrate: H-D-Val-Leu-Lys-pNA (0.2 mL, 3 mM); • Borate buffer—0.5 mL (pH 7.5), enzyme: trypsin (0.4 units/mL), synthetic substrate: Bzl-L-Arg-pNA·HCl (0.2 mL, 8 mM); • Tris buffer—0.6 mL (pH 9.0), enzyme: kallikrein (3 units/mL), synthetic substrate: H-D-Val-Leu-Arg-pNA·2HCl (0.1 mL, 75 mM); • Tris buffer—0.6 mL (pH 8.4), enzyme: t-PA ([…]), synthetic substrate: H-D-Ile-Pro-Arg-pNA (0.1 mL, 10 mM) • Tris buffer—0.6 mL (pH 9.0), enzyme: chymotrypsin (0.4 units/mL), synthetic substrate: Suc-Phe-pNA (0.2 mL, 8 mM)

In data set [2] the target is T2, thrombin (Bos taurus, UniProt P00735).
T2 construct: purchased Lubelska Wytwórnia Szczepionek (Lublin, Poland)
The data set is described as follows: Amidolytic activity of thrombin (chromogenic substrate H-D-Phe-Pip-Arg-pNA). It counts as biochemical. As to conditions: amidolytic activity; Tris pH 8.4, 37 °C; IC50 by extrapolation using a linear plot; error 5%; read-out: IC50 Thrombin. The procedure: The determination of amidolytic activity was performed as previously described by Okada. A detailed description of the method is given below: 0.2 mL of the examined peptides (0.15 M NaCl as contro), a buffer, and 0.1 mL of enzyme solution were mixed. The final peptide concentrations were: 0.2 mM, 2 mM, and 20 mM. The mixture was incubated at 37 °C for 3 min; then the synthetic substrate solution was added in the same buffer. […] The mean values from three independent experiments done in duplicate are presented. A method error of 5% was adopted as statistical error. […] IC50 was calculated mathematically by extrapolation using a linear plot.

Data set [3] concerns primary dermal fibroblasts cells. In words: Viability of fibroblast cells, MTT assay. The class given is cell-based, Human. As to conditions: MTT, 1-100 μM, 24 h. The procedure:
(§3) Viability of fibroblast cells was examined with the use of the MTT assay. MTT, a yellow tetrazole, is reduced to purple formazan only in living cells. Absorbance of the coloured solution was measured by a spectrophotometer.
(§4) These studies were performed on primary dermal fibroblasts cells. The cells were maintained in DMEM supplemented with 10% fetal bovine serum (FBS), 2 mM glutamin, 50 U/mL penicillin and […] streptomycin at 37 °C in a 5% CO2 incubator. For experiments, cells cultures were plated at a density of 1 × 10^6/well in six-well culture plates (Costar, St. Louis, MO, USA) in 2 mL of growth medium. Cells reached about 80% of confluency at day 2 were used for the assays.
(§5) Toxicity of the tested substances was determined using an MTT [3-(4,5-dimethylthiazol-2-yl)-2,5-diphenyltetrazolium bromide)] assay. Palmitoyl and lipoyl peptides were dissolved in DMSO (dimethyl sulfoxide), the other peptides in DMEM, and added to the cell culture medium. Simultaneously, the same concentrations of DMSO without peptides were added to cells, serving as controls. The final peptide concentrations were: 1 μM, 10 μM, and 100 μM. After 24 h incubation, the cells cultured with the tested compounds were washed with phosphate-buffered saline (PBS) and then incubated for 4 h in 2 mL of MTT solution (5 mg/mL). After removing the medium, the cells were lysed in 200 μL of DMSO with 20 μL of Sorensen’s buffer (pH 10.5, 0.1 mol/L glycine with 0.1 mol/L NaCl). The absorbance of converted dye in living cells was measured at a wavelength of 570 nm. The mean values ± SD from three independent experiments done in duplicate are presented.

The nature of data set [4]: Viability of fibroblast cells, MTT assay. It counts as cell-based, Human. As to conditions: human, primary dermal fibroblast cells, 24 h, MTT, ± 2, read-out: Viability of fibroblast cells. As for the experimental part: as §3, §4, §5
For orientation: Formazan colour is commonly taken as a measure of viable cells.

For data set [5], the system named is collagen biosynthesis. Also noted: method as in PMID 24090916. As to conditions: single concentration of 0.5 mM; cited from earlier work.
Data set [6] concerns Fibroblasts. In words: Collagen biosynthesis, 5[3H]-proline incorporation in fibroblasts. It counts as cell-based, Human. As to conditions: 24 h, ± 2. As for the experimental part:
In collagen biosynthesis assays cells were counted in a haemocytometer and incorporation of a radioactive precursor 5[^3H]-proline into collagen was measured. Total protein synthesis was calculated from the sum of radioactivity of collagenase-resistant proteins and collagen digest.
Fibroblasts were cultured in six-well plates until confluence. Then they were incubated for 24 h in growth medium in the absence or presence of the tested peptides and 5[^3H]-proline (5 µCi/mL, 28 Ci/mM). The final peptide concentrations were: 10 μM, 50 μM and 100 μM. In accordance with the method proposed by Peterkofsky and Diegelmann, incorporation of the radioactive precursor into collagen was determined by digesting the proteins with purified Clostridium histolyticum collagenase. Finally, the monolayers were washed with sterile 10mM PBS, pH 7.4 four times, and cell membranes were disrupted using a sonicator. Aliquots of the cell homogenate were removed for protein measurement using the BCA™ Protein Assay Kit (Pierce, Waltham, MA USA). The results are shown as combined values for cell plus medium fractions.

Data set [7] relates to fibroblast cells. In words: DNA biosynthesis, [3H] thymidine incorporation in fibroblasts. It counts as cell-based, Human. The settings on record: for DNA biosynthesis: 24 h, ± 2; for DNA synthesis: 10, 50, 100 μM. The procedure: In the radioactive method of DNA measurement in the liquid sample, the radioactive activity of the sample was measured. This technique involves mixing a radioactive material with a scintillation fluid/liquid (which contains a scintillator), resulting in photon emission. This emission is counted by a suitable detector.
To examine the effect of the studied compounds on DNA biosynthesis of fibroblast cells, they were plated in 24-well tissue culture dishes at 1 × 10^5 cells per well with 1 mL of growth medium. The plates were incubated after 48 h with the examined peptides and 0.5 μCi of [^3H] thymidine (6.7 Ci/mmol) at 37 °C. The final peptide concentrations were: 10 μM, 50 μM, and 100 μM. After 24 h incubation, the cells were rinsed with PBS three times and twice with 5% trichloroacetic acid. To measure the radioactivity incorporated into DNA, the cells were solubilized with 1 mL of 0.1 M sodium hydroxide containing 1% SDS and an addition of scintillation liquid (9 mL) (https://www.perkinelmer.com/pl/category/scintillation-cocktails). Radioactivity was determined in a scintillation counter, i.e., Liquid Scintillation Analyzer Tri-Carb 2810 TR (Perkin Elmer, Waltham, MA USA)) with Quanto Smart TM software (Perkin Elmer).
A general note: Incorporation of labelled thymidine or its analogues reports DNA synthesis.

In data set [8] the target is T3, urokinase (Homo sapiens, UniProt P00749).
T3 construct: purchased Sigma (Schnelldorf, Germany)
In words: Amidolytic activity of urokinase (chromogenic substrate pyro-Glu-Gly-Arg-pNA). The class given is biochemical. As to conditions: amidolytic activity; Tris pH 8.8, 37 °C; IC50 by extrapolation using a linear plot; error 5%; read-out: IC50 Urokinase. The procedure:
as §1, §2

Data set [9] has as its system collagen synthesis. Also noted: method as in PMID 19268583. As to conditions: cited from earlier work.
Setting [10] is: amidolytic activity, Tris pH 7.4, 37 °C, IC50 by extrapolation using a linear plot, error 5%, read-out: IC50 Plasmin.

T1 sequence (P00747 581-810 limits assumed): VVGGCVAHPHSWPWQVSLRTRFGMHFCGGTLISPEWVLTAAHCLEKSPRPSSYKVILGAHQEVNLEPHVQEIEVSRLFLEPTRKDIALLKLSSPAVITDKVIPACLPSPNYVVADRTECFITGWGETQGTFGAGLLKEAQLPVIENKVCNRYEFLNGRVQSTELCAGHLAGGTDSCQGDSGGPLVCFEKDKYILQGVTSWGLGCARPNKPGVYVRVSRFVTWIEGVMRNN
T1 sequence (P00747 97-580 partner limits assumed): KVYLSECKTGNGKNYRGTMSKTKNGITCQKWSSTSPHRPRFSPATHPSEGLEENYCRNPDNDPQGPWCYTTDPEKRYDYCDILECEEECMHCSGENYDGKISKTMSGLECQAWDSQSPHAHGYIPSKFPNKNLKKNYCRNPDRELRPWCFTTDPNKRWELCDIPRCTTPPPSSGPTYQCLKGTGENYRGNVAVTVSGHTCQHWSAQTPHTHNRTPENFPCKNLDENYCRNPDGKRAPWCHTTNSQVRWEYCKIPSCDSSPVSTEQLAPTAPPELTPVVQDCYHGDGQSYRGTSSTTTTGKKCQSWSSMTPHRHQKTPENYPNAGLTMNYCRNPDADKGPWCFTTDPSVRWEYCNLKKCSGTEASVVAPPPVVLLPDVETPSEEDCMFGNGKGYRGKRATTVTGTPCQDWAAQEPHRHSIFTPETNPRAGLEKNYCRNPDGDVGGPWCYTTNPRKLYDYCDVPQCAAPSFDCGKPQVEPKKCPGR

For `C[C@@H](O)[C@H](NC(=O)[C@H](CCCCN)NC(=O)CCCCC1CCSS1)C(=O)N[C@H](C(=O)N[C@@H](CCCCN)C(=O)N[C@@H](CO)C(=O)O)[C@@H](C)O` (mixture of isomers) [Peptide 3, Lip-Lys-Thr-Thr-Lys-Ser-OH], in [1] (setting [10]), the IC50 is 0.47 ± 0.023 mM. For the same compound, the IC50 in [2] is 12.8 ± 0.64 mM. Moreover, the “cytotoxicity / cell growth effect on fibroblasts” value (“cytotoxicity / cell growth effect” for short) in data set [3] is listed as “did not exhibit fibroblast growth”. Also, in data set [4], the viability at 24 h, 1 µmol/L was 94%; the viability at 24 h, 10 µmol/L was found to be 81%; the viability at 24 h, 100 µmol/L turned out to be 81%. Also, the “increase of collagen biosynthesis” value in data set [5] was “over 150%”.

Regarding “Ac-KTTRS-NH2 [Peptide 14, Ac-Lys-Thr-Thr-Arg-Ser-NH2]”, the Collagen biosynthesis in data set [6] (10 µmol/L) is given as 105 % of Control; in data set [6] (50 µmol/L) it was 171 % of Control; in data set [6] (100 µmol/L), 157 % of Control. Besides, the figures for the IC50 in [1] (setting [10]), in [8] and in data set [2] were 5.34 ± 0.27 mM, 5.56 ± 0.28 mM and 2.95 ± 0.15 mM, respectively. Also, the DNA biosynthesis in data set [7] (10 µmol/L) is 114 % of Control; in [7] (50 µmol/L), 96 % of Control; in data set [7] (100 µmol/L), 127 % of Control. Moreover, in [7], the “DNA synthesis” value is recorded as “an increase in DNA synthesis was observed”. In [3], the “cytotoxicity / cell growth effect” value is reported as “exhibited cell growth effects; also recorded: showed proliferative effect; also recorded: exhibited the effect of cell growth”. For the same compound, the viability at 24 h, 1 µmol/L in data set [4] came out at 112%. Also, the viability at 24 h, 10 µmol/L in data set [4] came out at 135%. Further, the viability at 24 h, 100 µmol/L in data set [4] stood at 150%.

Take “Ac-RTTKS-OH [Peptide 26, Ac-Arg-Thr-Thr-Lys-Ser-OH]”: the values for the Collagen biosynthesis in data set [6] (10 µmol/L), in [6] (50 µmol/L) and in data set [6] (100 µmol/L) were 166 % of Control, 77 % of Control and 108 % of Control, respectively. Also, the values for the IC50 in data set [1] (setting [10]), in [8] and in data set [2] were 5.45 ± 0.27 mM, 2.36 ± 0.12 mM and 0.81 ± 0.041 mM, respectively. The DNA biosynthesis is recorded as 126 % of Control in data set [7] (10 µmol/L), 112 % of Control in [7] (50 µmol/L) and 128 % of Control in [7] (100 µmol/L). For the same compound, in [7], the “DNA synthesis” value is on record as “increased DNA synthesis was observed at all concentrations”. In data set [3], the “cytotoxicity / cell growth effect” value is listed as “exhibited cell growth effects; also recorded: showed proliferative effect; also recorded: exhibited the effect of cell growth”. The viability at 24 h, 1 µmol/L in data set [4] stood at 112%. Also, in data set [4], the viability at 24 h, 10 µmol/L worked out at 137%. Besides, the viability at 24 h, 100 µmol/L in data set [4] turned out to be 150%.

Take “H-KTTKS-OH [Peptide 1, H-Lys-Thr-Thr-Lys-Ser-OH, reference compound]”: the “increase of collagen synthesis” value in [9] is listed as “no such effect”. Further, the IC50 in [1] (setting [10]) is 0.28 ± 0.014 mM. Moreover, in data set [2], the IC50 is 7.81 ± 0.39 mM. In addition, in [3], the “cytotoxicity / cell growth effect” value is listed as “did not exhibit fibroblast growth”. Moreover, in data set [4], the viability at 24 h, 1 µmol/L is 95%; the viability at 24 h, 10 µmol/L turned out to be 82%; the viability at 24 h, 100 µmol/L is 80%.

Take “H-KTTRS-NH2 [Peptide 13, H-Lys-Thr-Thr-Arg-Ser-NH2]”: the Collagen biosynthesis was 155 % of Control in [6] (50 µmol/L) and 49 % of Control in data set [6] (100 µmol/L). Besides, the IC50 in data set [1] (setting [10]) was 0.72 ± 0.036 mM; in data set [1] (converted from IC50 of Table 1, read-out: -logIC50 Plasmin (converted)) it was 0.708 mM; in data set [8] it was 17.6 ± 0.88 mM; in [2], 4.65 ± 0.233 mM. Besides, the DNA biosynthesis in data set [7] (10 µmol/L) is 84 % of Control; in data set [7] (50 µmol/L), 86 % of Control; in [7] (100 µmol/L), 74 % of Control. For the same compound, in data set [3], the “cytotoxicity / cell growth effect” value is reported as “exhibited cell growth effects; also recorded: showed proliferative effect; also recorded: exhibited the effect of cell growth”. The viability at 24 h, 1 µmol/L in data set [4] was 121%. Besides, the viability at 24 h, 10 µmol/L in data set [4] was 139%. Also, the viability at 24 h, 100 µmol/L in [4] was found to be 145%.
